Measurements taken from US20110002843A1, “METHOD OF DETECTING MYOCARDIAL DYSFUNCTION IN PATIENTS HAVING A HISTORY OF ASTHMA OR BRONCHOSPASM” (priority 2005, published 2011).

How the values were obtained:
[1] = biological target: T1, A1 adenosine receptor (Cavia porcellus, UniProt P47745); test: Langendorff guinea pig heart preparation, prolongation of stimulus-QRS interval (negative dromotropy)
T1 sequence (P47745 1-326): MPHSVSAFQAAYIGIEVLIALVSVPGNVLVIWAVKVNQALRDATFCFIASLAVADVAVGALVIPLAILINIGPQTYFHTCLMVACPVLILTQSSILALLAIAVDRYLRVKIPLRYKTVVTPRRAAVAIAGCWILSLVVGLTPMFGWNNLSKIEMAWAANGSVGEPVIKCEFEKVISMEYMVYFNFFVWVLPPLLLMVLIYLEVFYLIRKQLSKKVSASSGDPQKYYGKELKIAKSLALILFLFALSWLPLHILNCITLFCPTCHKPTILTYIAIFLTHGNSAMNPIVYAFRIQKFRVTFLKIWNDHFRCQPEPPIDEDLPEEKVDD

[2] = biological target: T2, Adenosine Receptor A1 (Cavia porcellus, UniProt P47745); test: G.P. Left Atrium (Negative Inotropy) bioassay; parameters: species or system guinea pig
T2 construct: prepared guinea pig assays for binodenoson; from tissue; host or cells: isolated guinea pig right / left atrium
T2 sequence (P47745 1-326): T1 sequence (P47745 1-326)
Description: (§1) It is further preferable to use compounds that are selective for the A2A receptor over the A2B receptor. Additional methods are known in the art for performing bioassays and are useful to identify selectivity to the A2B receptor as well as confirming selectivity and potency in vivo. Such bioassays are typically performed prior to animal and human trials.

[3] = Dose-selection study of coronary hyperemia (CBFV by Doppler guide wire) in non-asthmatic patients at cardiac catheterization; conditions: for % of CBFVR at peak Mean ± SD: CBFVR set by IC adenosine
Method: Coronary blood flow velocity reserve (CBFVR) was established by intracoronary (IC) bolus injections of adenosine just prior to administration of binodenoson to allow a direct comparison of the magnitude of responses.
Patients presenting for cardiac catheterization were screened for eligibility and provided informed consent prior to sedation. Final eligibility was determined by the investigator during diagnostic catheterization.
Following completion of the diagnostic catheterization procedure and confirmation of all eligibility criteria, the Doppler guide wire was introduced into an accessible coronary artery and manipulated until a stable signal was obtained.
Drug administration: All usual catheterization procedural medications including IC nitroglycerin, heparin, anxiolytics and analgesics, were allowed. […] Binodenoson doses were then introduced into a peripheral vein via an indwelling catheter.
Measurements: Coronary blood flow velocity (CBFV) was measured as continuous pulsatile (systolic and diastolic) velocity (cm/sec) with the Doppler guide wire introduced via a guiding catheter. HR was derived from the ECG signal. SBP and diastolic blood pressure (DBP) were recorded directly from the catheter sheath. For each IC adenosine injection, CBFVR was calculated by dividing the peak post-injection CBFV value by the respective baseline CBFV value. Each patient's maximal calculated CBFVR was used as a benchmark to which CBFV responses to binodenoson were compared. For each binodenoson dose, baseline CBFV (post-IC adenosine), peak CBFV, time following dose start time to achieve peak CBFV and percents of CBFVR (calculated as the ratio of CBFV change from baseline following binodenoson administration vs CBFVR) at each point were calculated. Rate pressure product (RPP) and coronary vascular resistance (CVR) were derived at each time point (see formulas in Table 10). […] Vital signs were measured again approximately 3 to 4 hours after dosing or prior to hospital discharge. Patients returned for a follow-up visit 2 to 4 days following catheterization that included vital signs, an abbreviated physical examination, a 12-lead ECG, blood chemistry and hematology assessments and an assessment of any late-emerging adverse events.
Adverse events were monitored throughout the study.
Statistical analyses: All pharmacodynamic and safety data were analyzed using the intent-to-treat (ITT) population, which included all patients who received any amount of study drug. A paired t test was used to assess the significance of within-treatment differences (peak vs baseline) in CBFV, vital signs and calculated CVR and RPP; repeated comparisons were corrected using the Bonferroni-Holm method. The statistical significance of differences among treatment groups was evaluated using an analysis of variance (ANOVA) model that included treatment and investigator interactions.

[4] = biological target: T2, Adenosine Receptor A1; test: G.P. Right Atrium (Negative Inotropy) bioassay; parameters: species or system guinea pig
Description: as §1

[5] = test system: β-adrenergic receptors; test: Affinity for β-adrenergic receptors; type: binding
[6] = iv infusion 0.3 μg/kg/min × 3 min
[7] = iv infusion 0.5 μg/kg/min × 3 min
[8] = iv infusion 1 μg/kg/min × 3 min

Nc1nc(N/N=C/C2CCCCC2)nc2c1ncn2[C@@H]1O[C@H](CO)[C@@H](O)[C@H]1O (stereo in doubt) [Binodenoson, 2-{2-[(Cyclohexyl)methylene]hydrazino}adenosine]
EC50 [1]: 3.5 µM | EC50 [2]: 38.9 µM | maximal coronary hyperemia relative to CBFVR ([3]; 1.5 and 3 μg/kg doses, infused over 3 minutes or as boluses): equivalent to CBFVR | onset of coronary hyperemic responses ([3]; after drug administration): evident within seconds of drug administration | time for mean SBP, DBP, CVR, RPP and HR to return to near-baseline levels ([3]; all doses): approximately 15 minutes | time for CBFV to achieve nearly maximal levels ([3]; all treatment groups): ≤ 3 min | time of mean peak CBFV response ([3]; all treatment groups): ≤ 6 min | adverse events rated mild in intensity ([3]; both, human, in vivo): 84% | adverse events rated moderate in intensity ([3]; both, human, in vivo): 15% | patients with decreases in SBP <80 mmHg or DBP <45 mmHg per group ([3]; both, human, in vivo): 7-15% | patients with hypotension (SBP decrease >20 mmHg or DBP decrease >15 mmHg) per dose group ([3]; both, human, in vivo): 50-71% | serious adverse events during the study ([3]; both, human, in vivo): Seven serious adverse events occurred in 6 patients | time for CBFV to return fully to baseline ([3]; extrapolation of the decaying CBFV responses): ≤ 30 min | ECG changes ([3]; human, in vivo): no adverse changes or trends in ECGs | tolerability ([3]; human, in vivo): well tolerated | % of CBFVR at peak Range ([3]; iv bolus 1.5 μg/kg): 45.8-156.6% | CVR Maximum (mean ± SD) ([3]; iv bolus 1.5 μg/kg): 1.7 ± 0.8 cm*mmHg/sec | Duration (min) of hyperemia ≧85% of CBFVR Mean ± SD ([3]; iv bolus 1.5 μg/kg): 7.4 ± 6.86 min | Duration (min) of hyperemia ≧85% of CBFVR Range ([3]; iv bolus 1.5 μg/kg): 1 to 21 min | Peak CBFV Mean ± SD ([3]; iv bolus 1.5 μg/kg): 54.0 ± 19.9 cm/sec | Peak CBFV Range ([3]; iv bolus 1.5 μg/kg): 21-96 cm/sec | Time of peak CBFV Mean ± SD ([3]; iv bolus 1.5 μg/kg): 4.5 ± 3.7 min | Time of peak CBFV Range ([3]; iv bolus 1.5 μg/kg): 1 to 15 min | % of CBFVR at peak Mean ± SD ([3]; iv bolus 1.5 μg/kg): 90.6 ± 23.7% | Duration (min) of hyperemia ≧85% of CBFVR Mean ± SD ([3]; iv bolus 1.5 μg/kg, listed as binodenoson): 7.4 ± 6.86 min | % of CBFVR at peak Range ([3]; iv bolus 3 μg/kg): 44.4-130.5% | CVR Maximum (mean ± SD) ([3]; iv bolus 3 μg/kg): 1.6 ± 0.4 cm*mmHg/sec | Duration (min) of hyperemia ≧85% of CBFVR Mean ± SD ([3]; iv bolus 3 μg/kg): 12.3 ± 9.59 min | Duration (min) of hyperemia ≧85% of CBFVR Range ([3]; iv bolus 3 μg/kg): 2 to 39 min | Peak CBFV Mean ± SD ([3]; iv bolus 3 μg/kg): 55.8 ± 14.6 cm/sec | Peak CBFV Range ([3]; iv bolus 3 μg/kg): 35-94 cm/sec | Time of peak CBFV Mean ± SD ([3]; iv bolus 3 μg/kg): 6.0 ± 3.8 min | Time of peak CBFV Range ([3]; iv bolus 3 μg/kg): 1 to 14 min | % of CBFVR at peak Mean ± SD ([3]; iv bolus 3 μg/kg): 99.9 ± 22.1% | Duration (min) of hyperemia ≧85% of CBFVR Mean ± SD ([3]; iv bolus 3 μg/kg, listed as binodenoson): 12.3 ± 9.59 min | % of CBFVR at peak Range [3, 6]: 40.0-124.5% | Duration (min) of hyperemia ≧85% of CBFVR Mean ± SD [3, 6]: 3.1 ± 1.97 min | Duration (min) of hyperemia ≧85% of CBFVR Range [3, 6]: 1 to 8 min | Peak CBFV Mean ± SD [3, 6]: 55.2 ± 21.0 cm/sec | Peak CBFV Range [3, 6]: 17-122 cm/sec | Time of peak CBFV Mean ± SD [3, 6]: 4.3 ± 2.8 min | Time of peak CBFV Range [3, 6]: 1 to 12 min | % of CBFVR at peak Mean ± SD [3, 6]: 83.5 ± 19.4% | CVR Maximum (mean ± SD) ([3]; iv infusion 0.3 μg/kg/min × 3 min, CVR = ([SBP − DBP]/3 + DBP)/CBFV): 1.7 ± 0.6 cm*mmHg/sec | % of CBFVR at peak Range [3, 7]: 52.2-288.1% | CVR Maximum (mean ± SD) [3, 7]: 1.9 ± 0.7 cm*mmHg/sec | Duration (min) of hyperemia ≧85% of CBFVR Mean ± SD [3, 7]: 5.3 ± 4.53 min | Duration (min) of hyperemia ≧85% of CBFVR Range [3, 7]: 1 to 14 min | Peak CBFV Mean ± SD [3, 7]: 49.6 ± 20.4 cm/sec | Peak CBFV Range [3, 7]: 26-135 cm/sec | Time of peak CBFV Mean ± SD [3, 7]: 5.4 ± 5.9 min | Time of peak CBFV Range [3, 7]: 1 to 30 min | % of CBFVR at peak Mean ± SD [3, 7]: 95.0 ± 40.4% | % of CBFVR at peak Range [3, 8]: 66.5-144.5% | CVR Maximum (mean ± SD) [3, 8]: 1.7 ± 0.6 cm*mmHg/sec | Duration (min) of hyperemia ≧85% of CBFVR Mean ± SD [3, 8]: 10.9 ± 8.54 min | Duration (min) of hyperemia ≧85% of CBFVR Range [3, 8]: 1 to 24 min | Peak CBFV Mean ± SD [3, 8]: 53.1 ± 14.8 cm/sec | Peak CBFV Range [3, 8]: 29-81 cm/sec | Time of peak CBFV Mean ± SD [3, 8]: 5.8 ± 3.8 min | Time of peak CBFV Range [3, 8]: 1 to 13 min | % of CBFVR at peak Mean ± SD [3, 8]: 100.9 ± 22.1% | EC50 [4]: 21 µM | affinity [5]: no affinity
